# Measurements taken from patent US20250041313A1, “COMBINATION THERAPY FOR TREATMENT OF CANCER” (CITY OF HOPE, priority 2023, published 2025).
# Tests used:
# SBC5 cells = experiment: Imaris quantification of mitochondrial and nuclear areas/morphology; type: cell-based, human; conditions: SBC5, 10 μM
# Experimental: (§1) Imaris 9.9.0 (Bitplane, AG), with Surfaces and Cells modules, was used to generate mitochondria morphology data from 2D images and 2D Z-stack subsets. Surfaces were used to evaluate individual mitochondria from cell monolayers and spheroids. Detection parameters were optimized for visible mitochondria and nuclei in each group with varying signal intensities. Roundness ratios were calculated from Surface generated Bounding Box 00 Length measurements. Object lengths less than 0.1 μm were excluded, and lengths greater than 1.26 μm were separately analyzed as clusters. Thresholds were uniformly applied to roundness ratios to categorize mitochondria morphology as elongated (<0.599), intermediate (≥0.600-0.649), or round/fragmentated (≥0.650). The percentage of cells from total number is based on a ratio. A perfectly round object has a ratio of 1.0. The Cells module was used to detect and quantify mitochondria and nucleus area from cell monolayers. Identical parameters were applied to all groups with cell boundary detection based on mitochondria signals. Imaris includes nuclei in cytoplasm measurements, so mitochondrial area is calculated by subtracting nucleus area from cell cytoplasm area. Abnormal nuclei were excluded (<100 μm^2, >750 μm^2).
# Next, we performed the same analysis with SBC5 cells. […] Mitochondrial elongation in SBC3 cells treated with Teri and Leflu is visible and correlates with Imaris Surface results. […] Although mitochondrial areas of SBC5 cells were not affected by Teri and Leflu treatments, elongations of individual mitochondria were detected with each treatment (FIG. 2I). […] Therefore, it is important to investigate the effects of Teri and Leflu on mitochondrial morphology and cell survival in combination with chemotherapeutic drugs.
# SBC3 cells [1] = experiment: as above; type: cell-based, human; conditions: SBC3
# Experimental: as §1
# MitoTracker Red and Hoechst 33342 were used to validate Teri and Leflu effects on intact mitochondrial morphology in SBC3 and SBC5 cells. M1 and MDIVI1 compounds were used as positive controls because they are promoters of mitochondrial fusion. Mitochondrial and nuclear areas were quantified by analyzing object surface area and intensity in Imaris 9.9.0.
# SCLC = conditions: relapsed / second-line SCLC patients; cited from earlier work
# SBC5 xenograft = experiment: SBC5 mouse xenograft, Carbo/Leflu study; type: in vivo; conditions: Carbo 50 mg/kg, Leflu 7.5 mg/kg, i.p. twice a week
# Experimental: Athymic nude nu/nu mice were obtained from Charles River, Wilmington, MA, and were acclimated for a week before beginning the experiment. All animal experiments were carried out in accordance with a protocol approved by the Institutional Animal Care and Use Committee COH (IACUC #16004). For treatments, mice were divided into 4 groups with five mice per group and subcutaneously injected into one flank with 2×10^6 SBC3 or SBC5 cells suspensions in 100 μl of PBS. Treatment started on the 14th day when tumors became palpable. Two in vivo studies were done in this project. SBC3 and SBC 5 xenograft with i) vehicle control, ii) […] 50 mg/kg, iii) Leflu 7.5 mg/kg, and iv) […]/Leflu. SBC3 with i) vehicle control, ii) Lur 0.5 mg/kg, iii) Leflu 3.8 mg/kg, and iv) Lur/Leflu. Treatments were given to mice via i.p. twice a week for 6 weeks. Animals were examined daily for signs of tumor growth. Tumors were measured in two dimensions using calipers and body weights were recorded. Animals were photographed on days 1, 5, 10, 15, 20, 25, 30, 35, and 40 after treatment. Tumors were removed on day 40 and photographed. At the end of the study, the mice were euthanized by CO2 asphyxiation followed by cervical dislocation. The tumor weights were compared between groups using an unpaired Student's t-test. […] Mean immunofluorescence intensities were calculated with ZEN 2.3 Lite software.
# SBC3 cells [2] = experiment: CCK-8 cell viability/cytotoxicity assay, 72 h; type: cell-based, human; conditions: SBC3, CCK-8 72 h, fixed concentrations of Teri and Carbo; read-out: IC50, single treatment and combination treatment
# Experimental: The expression levels of DRP1 and DHODH in SCLC lines were compared with non-malignant BEAS 2B cells. […] Previous studies have shown that Leflu and its active metabolite Teri regulate mitochondrial morphology (9,10,26). […] In vitro cytotoxicity effect of Teri and Leflu was tested in a panel of SCLC cell lines. Ten SCLC cell lines were treated with increasing concentrations of each drug for 72 h.
# Isobologram and CI50 values were calculated using the Chou-Talalay method and IC50 to find synergism (FIG. 3B).
# SBC3 cells [3] = experiment: LC-MS of nucleotides, nucleosides and nucleobases in cell pellets; type: cell-based, human; design: unit not given here
# Experimental: These studies were performed by Creative Proteomics in their facility in Shirley, NY. Each sample was placed into 250 μL of 80% methanol. Tissue samples were weighed in 2-mL Eppendorf tubes, and 80% methanol was added at 10 μL per mg of raw tissue. The tissue and cell samples were then homogenized on a MM 400 mill mixer with the aid of two 4-mm metal beads at a shaking frequency of 30 Hz for 2 min and the homogenization step was repeated twice. The samples were placed at −20° C. for 1 h and then centrifuged at 21,000×g for 10 min. The clear supernatants were collected for LC-MS quantitation. Protein content was measured from protein pellets by Bradford protein assays and used to normalize metabolite concentrations from cell pellets. A stock solution contained standard substances of all the targeted nucleotides, nucleosides, and nucleobases were prepared at 200 nmol/mL for each in an internal standard solution of ^13C- and/or ^15N-labeling AMP, ATP, GMP, GTP, UMP, UTP, adenine and adenosine. This solution was serially diluted with the same solution to prepare 10-point calibration solutions in a concentration range of 0.0001 to 50 μM. 10 μL of the supernatant of each sample was mixed with 90 μL of the internal standard solution. 10 μL aliquots of the sample solutions and the standard solutions were injected into a C18 LC column (2.1*150 mm, 1.9 μm) to run UPLC-MRM/MS on a Waters Acquity UPLC system coupled to a Sciex QTRAP 6500 Plus mass spectrometer operated in the negative-ion mode for detection of nucleotides. The mobile phase was a triethylamine buffer (A) and acetonitrile/methanol (1:1) (B) for binary gradient elution (5% to 60% B in 25 min), at 0.25 mL/min and 55° C. For quantitation of nucleosides and nucleobases, 10-μL aliquots of the sample solutions and the standard solutions were injected onto a polar reversed-phase C18 column (2.1*100 mm, 1.6 μm) to run UPLC-MRM/MS on a Waters Acquity UPLC system coupled to a Sciex QTRAP 6500 Plus mass spectrometer operated in the positive-ion mode. The mobile phase was 0.1% formic acid-ammonium formate buffer (A) and methanol (B) for binary gradient elution (0% to 40% B in 15 min), at 0.25 mL/min and 30° C. Concentrations of the detected nucleotides, nucleosides or nucleobases in the UPLC-MRM/MS runs were calculated with internal-standard calibration by interpolating the constructed linear-regression curves of individual compounds, with the analyte-to-internal standard peak area ratios measured from the sample solutions.
# The effect of treatment on the concentration of purines and pyrimidines for both cell lines and xenograft were modelled as concentration=Treatment1+Treatment2+Treatment1*Treatment2. For cell lines, Treatment 1-2 were […] and Teri, while for the xenografts—Lur and Leflu respectively. The significance of the effects was ascertained by p-values associated with the coefficients of the model (20). The p-values were FDR corrected to account for repeated testing. The coefficient for the interaction term (Treatment1*Treatment2) and its associated p-value correspond to the synergistic effect of the two treatments. Coefficients and p-values for the rest of the terms indicate significance of each treatment alone. Statistical analysis was conducted in R.
# SBC3 xenograft = experiment: SBC3 mouse xenograft, Carbo/Leflu study; type: in vivo
# Experimental: Athymic nude nu/nu mice were obtained from Charles River, Wilmington, MA, and were acclimated for a week before beginning the experiment. All animal experiments were carried out in accordance with a protocol approved by the Institutional Animal Care and Use Committee COH (IACUC #16004). For treatments, mice were divided into 4 groups with five mice per group and subcutaneously injected into one flank with 2×10^6 SBC3 or SBC5 cells suspensions in 100 μl of PBS. Treatment started on the 14th day when tumors became palpable. Two in vivo studies were done in this project. SBC3 and SBC 5 xenograft with i) vehicle control, ii) […] 50 mg/kg, iii) Leflu 7.5 mg/kg, and iv) […]/Leflu. SBC3 with i) vehicle control, ii) Lur 0.5 mg/kg, iii) Leflu 3.8 mg/kg, and iv) Lur/Leflu. Treatments were given to mice via i.p. twice a week for 6 weeks. Animals were examined daily for signs of tumor growth. Tumors were measured in two dimensions using calipers and body weights were recorded. Animals were photographed on days 1, 5, 10, 15, 20, 25, 30, 35, and 40 after treatment. Tumors were removed on day 40 and photographed. At the end of the study, the mice were euthanized by CO2 asphyxiation followed by cervical dislocation. The tumor weights were compared between groups using an unpaired Student's t-test. A portion of the tumor was fixed in 10% buffered formaldehyde solution and paraffin-embedded for immuno-staining. FFPE tumor sections were stained with pDRP Ser^616 antibody. Tumor sections were deparaffinized and rehydrated, followed by heat-mediated antigen retrieval (pH 6, Dako). After permeabilization and blocking, tumor sections were stained with pDRP1 Ser^616 antibody overnight, washed and incubated with Alexa 488 secondary antibody for one hour, mounted and observed on an LSM 880 with a 10×/0.45 NA objective (Carl Zeiss). Immunofluorescent confocal images were acquired for each treatment (magnification:100×). Mean immunofluorescence intensities were calculated with ZEN 2.3 Lite software.
compound,measurement,setting,value
COc1cc(-n2c(=S)[nH]c3ccccc3c2=O)c(Cl)cc1Cl [MDIVI1],Mitochondrial area,SBC5 cells,419.9±13.26 μm^2
same,Mitochondrial elongation (Airyscan imaging),SBC3 cells [1],moderately affected
same,effect on mitochondrial or nuclear areas,SBC3 cells [1],did not affect
"CC[C@@]1(O)C(=O)OCc2c1cc1n(c2=O)Cc2cc3c(CN(C)C)c(O)ccc3nc2-1 [topotecan, Topotecan]",ORR,SCLC,24%
same,median PFS,SCLC,3.4 months
CC(=NNc1c(Cl)cc(Cl)cc1Cl)c1cc(Cl)ccc1O [M1],Mitochondrial elongation (Airyscan imaging),SBC3 cells [1],moderately affected
same,effect on mitochondrial or nuclear areas,SBC3 cells [1],did not affect
carboplatin,final tumor weight (day 40),SBC5 xenograft,0.64 ± 0.10 g
same,IC50,SBC3 cells [2],4.12 µM
same,ATP concentration,SBC3 cells [3],27.92±0.55
same,UTP concentration,SBC3 cells [3],9.29±0.4
same,XMP concentration,SBC3 cells [3],0.35±0.18
same,dATP concentration,SBC3 cells [3],0.17±0.002
same,dCTP concentration,SBC3 cells [3],0.06±0.004
same,dm5UTP concentration,SBC3 cells [3],0.44±0.001
same,xanthosine concentration,SBC3 cells [3],0.094±0.045
same,pDRP1 Ser616 immunofluorescence in tumor sections,SBC3 xenograft; SBC3 xenograft FFPE tumors,significant decrease
same,reduction in tumor size/weight,"SBC3 xenograft; SBC3 xenograft, day 40, vs control",~58%
same,average final tumor weight at end of study (day 40),"SBC3 xenograft; SBC3 xenograft, Carbo 50 mg/kg, Leflu 7.5 mg/kg, i.p. twice a week",0.75 ± 0.10 g
